Data published in publication PMC8279408.
Entries after “also recorded” stand apart in the source; their conditions may differ.

Tests used:
[1] = Water solubility; assay type: physicochemical; details: in distilled water
Experimental: The synthesis of dicyanocobinamide (Cbi) was performed according to previously reported methods.[59] Briefly, to a 10 mL microwave reaction vessel containing a magnetic stir bar were added B12 (cyanocobalamin) (303.8 mg, 0.225 mmol) (see Figures S1–S6), sodium cyanide (NaCN) (36.9 mg, 0.7096 mmol), and 5 mL of EtOH, and the vessel was sealed. The reaction was heated to 120 °C for 10 min. Following completion of the microwave reaction, the remaining solution was transferred and diluted using isopropyl alcohol (iPrOH). The reaction was purified utilizing a normal-phase silica column. The reaction was eluted using 100% methanol (MeOH). The product eluted as a purple product. The isolated product was precipitated utilizing diethyl ether (Et2O) and allowed to dry producing a solid, purple product, 2 (see Figure 2), in 80% yield (187.4 mg, 0.1795 mmol). Solubility was measured to be 400 mg/mL in distilled water.

[2] = system: shrews; experiment: Food intake and body weight (energy balance) in shrews; assay type: in vivo, Suncus murinus; details: 5 nmol/kg IP, single dose, n = 10 shrews
Experimental: Food intake was evaluated using our custom-made feedometers, consisting of a standard plexiglass rodent housing cage (29 × 19 × 12.7 cm) with mounted food hoppers resting on a plexiglass cup (to account for spillage). Shrews had ad libitum access to powdered food through a circular (3 cm diameter) hole in the cage. Food was removed 1 h prior to the dark onset. […] Food intake was manually measured at 6, 24, and 48 h post injection. BW was measured at 0, 24, and 48 h.

[3] = biological target: human glucagon like peptide-1 receptor (human) (UniProt P43220)
[4] = system: patients; details: over ∼1 year; cited from earlier work
[5] = biological target: rat GLP-1R (rat) (UniProt P32301)
[6] = biological target: human glucagon like peptide-1 receptor (human) (UniProt P43220); experiment: AlphaScreen or HTRF; Taglite fluorescence competitive binding assay (Euroscreen Fast, Cat No. FAST0154B) on CHO-K1 cells at the human GLP-1R; agonist tracer GLP-1red at 4 nM, reference competitor nEx-4; nine concentrations from 1 pM to 1 uM, duplicate independent runs

human glucagon like peptide-1 receptor (human), sequence (P43220 24-463): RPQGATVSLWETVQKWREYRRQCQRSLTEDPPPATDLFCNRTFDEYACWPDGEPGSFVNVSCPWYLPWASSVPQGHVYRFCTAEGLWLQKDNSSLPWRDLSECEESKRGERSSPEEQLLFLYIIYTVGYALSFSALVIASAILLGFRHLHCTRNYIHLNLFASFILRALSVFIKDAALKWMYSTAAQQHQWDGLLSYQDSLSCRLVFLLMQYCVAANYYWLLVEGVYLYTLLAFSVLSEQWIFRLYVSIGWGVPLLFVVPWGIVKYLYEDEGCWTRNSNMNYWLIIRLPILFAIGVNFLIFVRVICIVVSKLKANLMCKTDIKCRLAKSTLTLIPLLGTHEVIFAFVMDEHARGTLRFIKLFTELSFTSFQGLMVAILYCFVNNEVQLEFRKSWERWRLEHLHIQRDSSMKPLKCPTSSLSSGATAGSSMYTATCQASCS
rat GLP-1R (rat), sequence (P32301 22-463): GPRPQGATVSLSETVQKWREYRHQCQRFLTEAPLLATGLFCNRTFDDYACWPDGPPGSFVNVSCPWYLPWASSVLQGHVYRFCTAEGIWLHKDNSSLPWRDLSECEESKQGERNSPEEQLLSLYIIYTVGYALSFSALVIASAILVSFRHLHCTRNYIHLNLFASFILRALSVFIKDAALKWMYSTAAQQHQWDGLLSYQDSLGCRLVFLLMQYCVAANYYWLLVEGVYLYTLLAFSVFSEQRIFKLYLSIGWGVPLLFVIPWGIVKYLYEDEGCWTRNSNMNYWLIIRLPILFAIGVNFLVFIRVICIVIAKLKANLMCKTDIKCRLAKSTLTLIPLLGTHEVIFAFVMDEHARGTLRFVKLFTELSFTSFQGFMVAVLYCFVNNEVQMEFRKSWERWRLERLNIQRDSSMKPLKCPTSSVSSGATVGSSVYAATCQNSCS

Question: With `C/C1=C2/[N-]C([C@H](CC(N)=O)[C@@]2(C)CCC(=O)NCC(C)O)[C@]2(C)N=C(/C(C)=C3N=C(/C=C4N=C1[C@@H](CCC(N)=O)C\4(C)C)[C@@H](CCC(N)=O)[C@]\3(C)CC(N)=O)[C@@H](CCC(N)=O)[C@]2(C)CC(N)=O.[C-]#N.[C-]#N.[Co]` (stereo partly drawn) [compound 2, dicyanocobinamide] as the molecule, how does the Solubility [1] read?
Answer: Its Solubility is 400 mg/mL.

Question: What does the source list for Cbi-Ex4 [compound 1]?
Answer: Food intake ([2]; 6, 24, 48 h (72 h in Figure 6D)): had no effect on food intake; also recorded: had no impact on feeding; Body weight ([2]; 24 h): No significant changes in body weight; also recorded: not observed

Question: With “exendin-4 with K12 azido modification (from UniProt P26349 48-87) (peptide)” as the molecule, how does the EC50 of agonism: cAMP FRET reporter H188 in HEK293 cells stably expressing the human GLP-1R [3] read?
Answer: Its EC50 of agonism: cAMP FRET reporter H188 in HEK293 cells stably expressing the human GLP-1R is 0.0125 nM.

Question: Which EC50 of agonism: cAMP FRET reporter H188 in HEK293 cells stably expressing the human GLP-1R [3] does the source give for “exendin-4 with an azido-lysine added as residue 40 (from UniProt P26349 48-87) (peptide)” here?
Answer: Its EC50 of agonism: cAMP FRET reporter H188 in HEK293 cells stably expressing the human GLP-1R is 0.0104 nM.

Question: Which Body weight reduction [4] does the source give for “liraglutide (HAEGTFTSDVSSYLEGQAAKEFIAWLVRGRG; chains of the INN, looked up) [GLP-1R agonist]” here?
Answer: Its Body weight reduction is 5–6%.

Question: What does the source list for “native Exendin-4 (from UniProt P26349 48-87) (peptide)”?
Answer: EC50 of functional agonism at the rat GLP-1R [5]: 0.048 nM; IC50 [6]: 4.97 nM

Question: With semaglutide as the molecule, how does the Body weight reduction [4] read?
Answer: Its Body weight reduction is 10–12%.
